Experimental findings from patent US20210038607A1, “OXADIAZOLYLTHIOPHENE DERIVATIVES USEFUL AS HISTONE DEACETYLASE INHIBITORS” (Karus Therapeutics Limited, priority 2018, published 2021) are described below.

One test has as its target T1, Human HDAC8 (Homo sapiens, UniProt Q9BY41).
T1 construct: full length with C-terminal His tag, MW=42.6 kDa; His (C); host or cells: baculovirus expression system
T1 sequence (Q9BY41 1-377): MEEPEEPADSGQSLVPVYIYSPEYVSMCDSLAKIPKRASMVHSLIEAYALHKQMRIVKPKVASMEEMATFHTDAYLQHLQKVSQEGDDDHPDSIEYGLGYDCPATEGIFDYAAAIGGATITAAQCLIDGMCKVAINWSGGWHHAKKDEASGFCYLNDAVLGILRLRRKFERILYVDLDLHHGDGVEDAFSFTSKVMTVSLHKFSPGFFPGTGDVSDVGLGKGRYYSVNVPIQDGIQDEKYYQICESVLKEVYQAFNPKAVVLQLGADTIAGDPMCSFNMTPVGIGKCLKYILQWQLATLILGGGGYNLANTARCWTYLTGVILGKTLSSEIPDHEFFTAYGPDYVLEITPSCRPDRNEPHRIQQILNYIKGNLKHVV
The test can be described thus: HDAC8 biochemical assay, AMC-labeled peptide substrate. As to conditions: read-out: HDAC Isoform IC50 (nM) 8. The method, then:
(§1) Activity against all zinc-dependent HDACs 1 to 11 was assessed by using an acetylated AMC-labeled peptide substrate. The substrate RHKK(Ac)AMC was used for HDAC1, HDAC2, HDAC3, HDAC6 and HDAC10; the substrate used for HDAC8 was RHK(Ac)K(Ac)AMC. Activity against the class IIa HDACs (HDAC4, 5, 7, 9) and HDAC11 was determined using a class IIa-specific substrate, BOC-Lys(trifluoroacetyl)-AMC (“Trifluoroacetyl Lysine”; see Lahm et al, 2007, PNAS, 104, 17335-17340). All assays were based on the AMC-labeled substrate and developer combination.
(§2) The protocol involved a two-step reaction: first, the substrate with the acetylated lysine side chain is incubated with a sample containing HDAC activity, to produce the deacetylated products, which are then digested in the second step by the addition of developer to produce the fluorescent signal proportional to the amount of deacetylated substrates.
Human HDAC8 (GenBankAccession No. NM_018486), full length with C-terminal His tag, MW=42.6 kDa, expressed in a baculovirus expression system.
(§3) Assay Buffer: 50 mM Tris-HCl, pH8.0, 137 mM NaCl, 2.7 mM KCl, 1 mM MgC2. Before use, 1 mg/mL BSA and DMSO are added.
HDAC8: 1 ng/ul HDAC8 and 100 µM HDAC8 substrate are in the reaction buffer with 1% DMSO final. Incubate for 2 hours at 30° C.
(§4) Stage 1: Deacetylation of substrate by incubation of HDAC enzymes with compounds
(§5) Stage 2: Development by addition of Developer to digest the deacetylated substrate, and generate the fluorescent colour; Detection: 360/460 Ex/Em

In the next test the target is T2, Human HDAC1 (Homo sapiens, UniProt Q13547).
T2 construct: full length with C-terminal His-tag and C-terminal FLAG-tag; His (C); FLAG (C); host or cells: baculovirus expression system
The test can be described thus: HDAC1 biochemical assay, AMC-labeled peptide substrate. The note with it: read-out: HDAC Isoform IC50 (nM) 1. An outline of the steps:
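Baculovirus-expressed full-length human HDAC1 with His and FLAG tags, 0.3 ng/ul, incubated 1 h at 30° C with compound and 50 μM RHKK(Ac)AMC in Tris pH 8.0 buffer with BSA and 1% DMSO. Developer then releases AMC from deacetylated substrate; fluorescence read at 360/460 nm.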

For the next test, the target named is T3, Human HDAC7 (Homo sapiens, UniProt Q8WUI4).
T3 construct: (a.a. 518-end) with N-terminal GST tag; GST (N); host or cells: baculovirus expression system
T3 sequence (Q8WUI4 518-952 limits assumed): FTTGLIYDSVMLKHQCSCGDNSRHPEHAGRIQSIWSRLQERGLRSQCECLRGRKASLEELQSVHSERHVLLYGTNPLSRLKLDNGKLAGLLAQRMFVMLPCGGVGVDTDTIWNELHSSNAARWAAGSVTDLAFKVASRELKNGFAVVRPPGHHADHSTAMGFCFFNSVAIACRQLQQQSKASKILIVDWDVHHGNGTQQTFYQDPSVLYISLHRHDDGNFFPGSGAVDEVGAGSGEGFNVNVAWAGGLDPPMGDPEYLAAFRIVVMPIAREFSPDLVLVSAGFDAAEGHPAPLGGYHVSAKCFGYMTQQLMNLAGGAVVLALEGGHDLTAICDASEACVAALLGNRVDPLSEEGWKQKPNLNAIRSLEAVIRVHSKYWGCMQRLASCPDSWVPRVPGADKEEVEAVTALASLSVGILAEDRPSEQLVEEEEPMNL
The experiment in a line: HDAC7 biochemical assay, class IIa-specific substrate. The note with it: read-out: HDAC Isoform IC50 (nM) 7. An outline of the steps: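 GST-tagged HDAC7 (a.a. 518-end, baculovirus-expressed) at 0.001 ng/ul with 50 μM Boc-Lys(trifluoroacetyl)-AMC substrate, 30 min at room temperature in pH 8.0 Tris buffer with BSA, 1% DMSO final. Developer then releases AMC; fluorescence read at 360/460 nm.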

The target in the next test is T4, Human HDAC5 (Homo sapiens, UniProt Q9UQL6).
T4 construct: full length with C-terminal His tag, MW=51.1 kDa; His (C); host or cells: baculovirus expression system
The test can be described thus: HDAC5 biochemical assay, class IIa-specific substrate. The note with it: read-out: HDAC Isoform IC50 (nM) 5. An outline of the steps: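 Full-length C-terminal His-tagged HDAC5 from baculovirus (0.05 ng/ul) incubated 30 min at room temperature with 50 μM Boc-Lys(trifluoroacetyl)-AMC and compound, Tris pH 8.0 buffer with BSA, 1% DMSO. Developer then releases AMC; fluorescence 360/460 nm.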

In a further test the target is T5, Human HDAC2 (Homo sapiens, UniProt Q92769).
T5 construct: full length with C-terminal GST-tag; GST (C); host or cells: baculovirus expression system
The experiment in a line: HDAC2 biochemical assay, AMC-labeled peptide substrate. The note with it: read-out: HDAC Isoform IC50 (nM) 2. The method, then: as §1, §2
Human HDAC2 (GenBank Accession No. NM_001527), full length with C-terminal GST-tag, MW=82.9 kDa, expressed inbaculovirus expression system.
as §3
HDAC2: 0.07 ng/ul HDAC2 and 50 μM HDAC substrate are in the reaction buffer with 1% DMSO final. Incubate for 1 hour at 30° C.
as §4, §5

T2 sequence (Q13547 whole entry): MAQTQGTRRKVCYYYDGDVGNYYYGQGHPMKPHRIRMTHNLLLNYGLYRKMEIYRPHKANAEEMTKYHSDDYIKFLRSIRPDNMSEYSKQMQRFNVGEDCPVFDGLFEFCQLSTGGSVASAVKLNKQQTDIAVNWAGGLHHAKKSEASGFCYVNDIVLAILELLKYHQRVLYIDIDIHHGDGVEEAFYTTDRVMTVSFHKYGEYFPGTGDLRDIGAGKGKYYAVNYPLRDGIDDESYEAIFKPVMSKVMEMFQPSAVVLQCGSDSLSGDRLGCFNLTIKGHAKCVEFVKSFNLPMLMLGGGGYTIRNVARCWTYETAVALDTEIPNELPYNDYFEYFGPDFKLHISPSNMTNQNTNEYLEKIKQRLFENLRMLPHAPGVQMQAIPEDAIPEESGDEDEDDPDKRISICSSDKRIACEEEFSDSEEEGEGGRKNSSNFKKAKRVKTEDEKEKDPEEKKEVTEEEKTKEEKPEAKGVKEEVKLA
T5 sequence (Q92769 whole entry): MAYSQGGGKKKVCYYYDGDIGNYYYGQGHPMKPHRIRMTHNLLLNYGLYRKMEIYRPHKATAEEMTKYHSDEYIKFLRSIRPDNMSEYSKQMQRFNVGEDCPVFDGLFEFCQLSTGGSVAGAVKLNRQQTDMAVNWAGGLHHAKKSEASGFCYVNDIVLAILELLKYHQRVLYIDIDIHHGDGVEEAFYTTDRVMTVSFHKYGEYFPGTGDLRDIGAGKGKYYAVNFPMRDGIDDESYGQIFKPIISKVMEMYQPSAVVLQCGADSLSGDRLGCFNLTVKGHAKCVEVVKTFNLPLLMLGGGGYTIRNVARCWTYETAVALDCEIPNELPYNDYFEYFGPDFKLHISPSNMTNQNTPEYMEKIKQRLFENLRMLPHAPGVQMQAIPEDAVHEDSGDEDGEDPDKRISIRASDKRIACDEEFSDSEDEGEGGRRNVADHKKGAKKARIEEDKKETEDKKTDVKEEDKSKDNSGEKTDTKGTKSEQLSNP
T4 sequence (Q9UQL6 656-1122 limits assumed): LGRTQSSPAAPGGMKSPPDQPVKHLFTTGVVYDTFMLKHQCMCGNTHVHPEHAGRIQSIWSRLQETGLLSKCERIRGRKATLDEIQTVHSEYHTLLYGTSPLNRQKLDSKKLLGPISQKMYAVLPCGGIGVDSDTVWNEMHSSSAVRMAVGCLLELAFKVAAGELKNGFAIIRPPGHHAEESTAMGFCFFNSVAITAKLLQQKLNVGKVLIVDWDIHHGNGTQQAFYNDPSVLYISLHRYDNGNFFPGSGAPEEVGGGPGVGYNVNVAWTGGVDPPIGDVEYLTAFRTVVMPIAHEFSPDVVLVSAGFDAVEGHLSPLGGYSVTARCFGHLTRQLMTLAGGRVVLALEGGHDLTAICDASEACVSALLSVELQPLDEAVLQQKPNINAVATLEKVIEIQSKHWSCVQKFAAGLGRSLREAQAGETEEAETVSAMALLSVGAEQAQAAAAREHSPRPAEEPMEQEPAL

On to `Fc1ccnc(N(Cc2ccc(-c3noc(C(F)(F)F)n3)s2)c2cnccn2)c1` [Example AG, N-(4-Fluoropyridin-2-yl)-N-({5-[5-(trifluoromethyl)-1,2,4-oxadiazol-3-yl]thiophen-2-yl}methyl)pyrazin-2-amine], for which the IC50 at Human HDAC8 was at most 10000 nM; at Human HDAC1, above 10000 nM; on Human HDAC7, at most 10000 nM; on Human HDAC5 it was at most 10000 nM; on Human HDAC2 it was above 10000 nM.
For `FC(F)(F)c1nc(-c2ccc(CN(c3cnccn3)c3ncccn3)s2)no1` [Example AS, N-(Pyrimidin-2-yl)-N-({5-[5-(trifluoromethyl)-1,2,4-oxadiazol-3-yl]thiophen-2-yl}methyl)pyrazin-2-amine], the 50% inhibitory concentration (IC50) at Human HDAC8 is at most 10000 nM; on Human HDAC1, above 10000 nM; on Human HDAC7, at most 10000 nM; at Human HDAC5 it was at most 1000 nM; at Human HDAC2 it was above 10000 nM.
In the case of `FC(F)(F)c1nc(-c2ccc(CN(c3cnccn3)c3cnccn3)s2)no1` [Example BA, N-(Pyrazin-2-yl)-N-({5-[5-(trifluoromethyl)-1,2,4-oxadiazol-3-yl]thiophen-2-yl}methyl)pyrazin-2-amine], the 50% inhibitory concentration (IC50) at Human HDAC8 is at most 10000 nM; at Human HDAC1, above 10000 nM; on Human HDAC7, at most 1000 nM; at Human HDAC5, at most 1000 nM; at Human HDAC2, above 10000 nM.
For `Cc1nccnc1N(Cc1ccc(-c2noc(C(F)(F)F)n2)s1)c1cnccn1` [Example BE, 3-Methyl-N-(pyrazin-2-yl)-N-({5-[5-(trifluoromethyl)-1,2,4-oxadiazol-3-yl]thiophen-2-yl}methyl)pyrazin-2-amine], the 50% inhibitory concentration (IC50) is at most 10000 nM on Human HDAC8; above 10000 nM at Human HDAC1; at most 500 nM on Human HDAC7; at most 500 nM at Human HDAC5; above 10000 nM on Human HDAC2.
Regarding `COc1nccnc1N(Cc1ccc(-c2noc(C(F)(F)F)n2)s1)c1cnccn1` [Example BF, 3-Methoxy-N-(pyrazin-2-yl)-N-({5-[5-(trifluoromethyl)-1,2,4-oxadiazol-3-yl]thiophen-2-yl}methyl)pyrazin-2-amine], the IC50 was at most 10000 nM at Human HDAC8; above 10000 nM at Human HDAC1; at most 10000 nM on Human HDAC7; at most 10000 nM at Human HDAC5; above 10000 nM at Human HDAC2.
In the case of `Cc1cnc(N(Cc2ccc(-c3noc(C(F)(F)F)n3)s2)c2cnccn2)cn1` [Example BH, 5-Methyl-N-(pyrazin-2-yl)-N-({5-[5-(trifluoromethyl)-1,2,4-oxadiazol-3-yl]thiophen-2-yl}methyl)pyrazin-2-amine], the concentration for half-maximal inhibition (IC50) on Human HDAC8 was at most 10000 nM; at Human HDAC1 it was at most 10000 nM; at Human HDAC7, at most 1000 nM; on Human HDAC5 it was at most 1000 nM; at Human HDAC2, above 10000 nM.
Turning to `COc1cnc(N(Cc2ccc(-c3noc(C(F)(F)F)n3)s2)c2cnccn2)cn1` [Example BI, 5-Methoxy-N-(pyrazin-2-yl)-N-({5-[5-(trifluoromethyl)-1,2,4-oxadiazol-3-yl]thiophen-2-yl}methyl)pyrazin-2-amine], the concentration for half-maximal inhibition (IC50) was at most 10000 nM on Human HDAC8; above 10000 nM at Human HDAC1; at most 500 nM on Human HDAC7; at most 10000 nM on Human HDAC5; above 10000 nM on Human HDAC2.
As for `FC(F)(F)c1cnc(N(Cc2ccc(-c3noc(C(F)(F)F)n3)s2)c2cnccn2)cn1` [Example BK, N-(Pyrazin-2-yl)-5-(trifluoromethyl)-N-({5-[5-(trifluoromethyl)-1,2,4-oxadiazol-3-yl]thiophen-2-yl}methyl)pyrazin-2-amine], the IC50 at Human HDAC8 is at most 10000 nM; on Human HDAC1, above 10000 nM; on Human HDAC7 it was at most 10000 nM; on Human HDAC5, at most 10000 nM; at Human HDAC2 it was above 10000 nM.
`FC(F)(F)c1nc(-c2ccc(CN(c3cnccn3)c3cnc(N4CCOCC4)cn3)s2)no1` [Example BM, 5-(Morpholin-4-yl)-N-(pyrazin-2-yl)-N-({5-[5-(trifluoromethyl)-1,2,4-oxadiazol-3-yl]thiophen-2-yl}methyl)pyrazin-2-amine]: the half-inhibitory concentration (IC50) was at most 10000 nM on Human HDAC8; at most 10000 nM on Human HDAC1; at most 10000 nM at Human HDAC7; at most 1000 nM at Human HDAC5; above 10000 nM at Human HDAC2.
As to `Cc1cncc(N(Cc2ccc(-c3noc(C(F)(F)F)n3)s2)c2cnccn2)n1` [Example BP, 6-Methyl-N-(pyrazin-2-yl)-N-({5-[5-(trifluoromethyl)-1,2,4-oxadiazol-3-yl]thiophen-2-yl}methyl)pyrazin-2-amine], the 50% inhibitory concentration (IC50) was at most 10000 nM at Human HDAC8; above 10000 nM on Human HDAC1; at most 10000 nM at Human HDAC7; at most 500 nM at Human HDAC5; above 10000 nM on Human HDAC2.
`COc1cncc(N(Cc2ccc(-c3noc(C(F)(F)F)n3)s2)c2cc(C(F)(F)F)cnn2)n1` [Example EN, N-(6-Methoxypyrazin-2-yl)-5-(trifluoromethyl)-N-({5-[5-(trifluoromethyl)-1,2,4-oxadiazol-3-yl]thiophen-2-yl}methyl)pyridazin-3-amine]: the values for the half-inhibitory concentration (IC50) on Human HDAC1, at Human HDAC7 and at Human HDAC5 were above 10000 nM, at most 10000 nM and at most 10000 nM, respectively.
For the molecule `FC(F)(F)c1cnnc(N(Cc2ccc(-c3noc(C(F)(F)F)n3)s2)c2cccnn2)c1` [Example ER, N-(Pyridazin-3-yl)-5-(trifluoromethyl)-N-({5-[5-(trifluoromethyl)-1,2,4-oxadiazol-3-yl]thiophen-2-yl}methyl)pyridazin-3-amine], the 50% inhibitory concentration (IC50) is above 10000 nM on Human HDAC1, at most 10000 nM at Human HDAC7 and at most 10000 nM on Human HDAC5.
On to `FC(F)(F)c1cnnc(N(Cc2ccc(-c3noc(C(F)(F)F)n3)s2)c2cc(C(F)(F)F)cnn2)c1` [Example EU, 5-(Trifluoromethyl)-N-({5-[5-(trifluoromethyl)-1,2,4-oxadiazol-3-yl]thiophen-2-yl}methyl)-N-[5-(trifluoromethyl)pyridazin-3-yl]pyridazin-3-amine], for which the figures for the IC50 at Human HDAC1, on Human HDAC7 and at Human HDAC5 were above 10000 nM, at most 10000 nM and at most 10000 nM, respectively.

For orientation: IC50 means the concentration needed to halve the response being measured.
